Data reported in patent publication US11793849B2, “Method of Chinese herbal medicine extract used for treating multiple diseases caused by drug resistant bacteria infection” (priority 2016, dated 2023).
Where two headings read alike, the source gives them in different places.

What was measured:
[1] = system: ATCC27853; experiment: MIC determination, control strain; assay type: cell-based
Method: Determination methods of a Minimal Inhibitory Concentration (MIC) and a Minimum Bactericidal Concentration (MBC) of a test product: the MIC and the MBC of the Pithecellobium clypearia Benth water or ethanol extract to the MDRAB are determined by a microdilution broth method.

[2] = system: MDRPA; experiment: MIC determination, microdilution broth method;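 further: broth microdilution per NCCLS recommendations, testing Pithecellobium clypearia water or ethanol extracts against multidrug-resistant Pseudomonas aeruginosa, with MIC50 and MIC90 derived statistically from individual MICs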
Method: (§1) Determination methods of a Minimal Inhibitory Concentration (MIC) and a Minimum Bactericidal Concentration (MBC) of a test product: the MIC and the MBC of the Pithecellobium clypearia Benth water or ethanol extract to the MDRAB are determined by a microdilution broth method. And it is operated by referring to the microdilution broth method recommended by National Committee for Clinical Laboratory Standards (NCCLS).
By determining the MIC and the MBC of the drug and making statistics of the data to obtain MIC50, MIC90, MBC50 and MBC90, the effect of the MDRA resistance of the drug is evaluated.
Test method: the MDRPA (serial No.: P1-P20) strains are tested and are evaluated with reference to the method in the first embodiment.

[3] = system: MDRAB; experiment: MIC determination, microdilution broth method; assay type: cell-based, Acinetobacter baumannii; conditions: Acinetobacter baumannii
Method: as §1

[4] = 20 MDRPAs, EA = 60% ethanol extract
[5] = 20 MDRPAs, EA = 95% ethanol extract
[6] = MDRPAs P1-P20, single use, EA=P. clypearia 10% ethanol extract
[7] = MDRPAs P1-P20, single use, EA=P. clypearia water extract
[8] = single use, 20 MDRPAs, section of the 10% ethanol extract
[9] = single use, 20 MDRPAs, section of the 60% ethanol extract
[10] = single use, 20 MDRPAs, section of the 95% ethanol extract

C[C@H]1COc2c(N3CCN(C)CC3)c(F)cc3c(=O)c(C(=O)O)cn1c23 [LVX, Levofloxacin]
32 µg/mL: MIC90 [2, 4] | MIC90 [2, 5] | MIC90 [2, 6] | MIC90 [2, 7] | MIC90 ([2]; Pseudomonas aeruginosa) | MIC ([2]; Pseudomonas aeruginosa, read-out: MIC (single use), strain P1, EA=P. clypearia 10% ethanol extract) | MIC ([2]; Pseudomonas aeruginosa, read-out: MIC (single use), strain P1, EA=P. clypearia water extract) | MIC ([2]; Pseudomonas aeruginosa, read-out: MIC (single use), strain P7, EA=P. clypearia 10% ethanol extract) | MIC ([2]; Pseudomonas aeruginosa, read-out: MIC (single use), strain P7, EA=P. clypearia water extract) | MIC ([2]; Pseudomonas aeruginosa, read-out: MIC (single use), strain P14, EA=P. clypearia 10% ethanol extract) | MIC ([2]; Pseudomonas aeruginosa, read-out: MIC (single use), strain P14, EA=P. clypearia water extract) | MIC ([2]; Pseudomonas aeruginosa, read-out: MIC (single use), strain P16, EA=P. clypearia 10% ethanol extract) | MIC ([2]; Pseudomonas aeruginosa, read-out: MIC (single use), strain P16, EA=P. clypearia water extract) | MIC90 [2, 8] | MIC90 [2, 9] | MIC90 [2, 10]
1 µg/mL: MIC ([1]; EA=10% ethanol extract, read-out: MIC) | MIC ([1]; EA=60% ethanol extract, read-out: MIC) | MIC ([1]; EA=95% ethanol extract, read-out: MIC) | MIC ([1]; EA=P. clypearia 10% ethanol extract, read-out: MIC (single use)) | MIC ([1]; EA=P. clypearia water extract, read-out: MIC (single use)) | MIC ([1]; EA=water extract, read-out: MIC) | MIC ([1]; single use, EA = 60% ethanol extract, read-out: MIC) | MIC ([1]; single use, EA = 95% ethanol extract, read-out: MIC) | MIC ([2]; Pseudomonas aeruginosa, read-out: MIC (single use), strain P5, EA=P. clypearia 10% ethanol extract) | MIC ([2]; Pseudomonas aeruginosa, read-out: MIC (single use), strain P5, EA=P. clypearia water extract) | MIC ([2]; Pseudomonas aeruginosa, read-out: MIC (single use), strain P8, EA=P. clypearia 10% ethanol extract) | MIC ([2]; Pseudomonas aeruginosa, read-out: MIC (single use), strain P8, EA=P. clypearia water extract) | MIC ([2]; Pseudomonas aeruginosa, read-out: MIC (single use), strain P12, EA=P. clypearia 10% ethanol extract) | MIC ([2]; Pseudomonas aeruginosa, read-out: MIC (single use), strain P12, EA=P. clypearia water extract)
4 µg/mL: MIC50 [2, 4] | MIC50 [2, 5] | MIC50 [2, 6] | MIC50 [2, 7] | MIC50 ([2]; Pseudomonas aeruginosa) | MIC ([2]; Pseudomonas aeruginosa, read-out: MIC (single use), strain P2, EA=P. clypearia 10% ethanol extract) | MIC ([2]; Pseudomonas aeruginosa, read-out: MIC (single use), strain P2, EA=P. clypearia water extract) | MIC ([2]; Pseudomonas aeruginosa, read-out: MIC (single use), strain P9, EA=P. clypearia 10% ethanol extract) | MIC ([2]; Pseudomonas aeruginosa, read-out: MIC (single use), strain P9, EA=P. clypearia water extract) | MIC ([2]; Pseudomonas aeruginosa, read-out: MIC (single use), strain P17, EA=P. clypearia 10% ethanol extract) | MIC ([2]; Pseudomonas aeruginosa, read-out: MIC (single use), strain P17, EA=P. clypearia water extract) | MIC ([2]; Pseudomonas aeruginosa, read-out: MIC (single use), strain P18, EA=P. clypearia 10% ethanol extract) | MIC ([2]; Pseudomonas aeruginosa, read-out: MIC (single use), strain P18, EA=P. clypearia water extract) | MIC ([2]; Pseudomonas aeruginosa, read-out: MIC (single use), strain P20, EA=P. clypearia 10% ethanol extract) | MIC ([2]; Pseudomonas aeruginosa, read-out: MIC (single use), strain P20, EA=P. clypearia water extract) | MIC50 [2, 8] | MIC50 [2, 9] | MIC50 [2, 10] | MIC ([3]; strain A3, EA=60% ethanol extract, read-out: MIC) | MIC ([3]; strain A3, EA=95% ethanol extract, read-out: MIC) | MIC ([3]; strain A3, single use, EA=10% ethanol extract, read-out: MIC) | MIC ([3]; strain A5, EA=60% ethanol extract, read-out: MIC) | MIC ([3]; strain A5, EA=95% ethanol extract, read-out: MIC) | MIC ([3]; strain A5, single use, EA=10% ethanol extract, read-out: MIC) | MIC ([3]; strain A5, single use, EA=water extract, read-out: MIC)
0.5 to 128 µg/mL: MIC Range [2, 4] | MIC Range [2, 5] | MIC Range [2, 6] | MIC Range [2, 7]
16 µg/mL: MIC ([2]; Pseudomonas aeruginosa, read-out: MIC (single use), strain P19, EA=P. clypearia 10% ethanol extract) | MIC ([2]; Pseudomonas aeruginosa, read-out: MIC (single use), strain P19, EA=P. clypearia water extract) | MIC ([3]; strain A2, EA=60% ethanol extract, read-out: MIC) | MIC ([3]; strain A2, EA=95% ethanol extract, read-out: MIC) | MIC ([3]; strain A2, EA=P. clypearia 95% ethanol extract, read-out: single-use MIC) | MIC ([3]; strain A2, single use, EA=10% ethanol extract, read-out: MIC) | MIC ([3]; strain A2, single use, EA=water extract, read-out: MIC) | MIC ([3]; strain A3, EA=P. clypearia 95% ethanol extract, read-out: single-use MIC)
128 µg/mL: MIC ([2]; Pseudomonas aeruginosa, read-out: MIC (single use), strain P10, EA=P. clypearia 10% ethanol extract) | MIC ([2]; Pseudomonas aeruginosa, read-out: MIC (single use), strain P10, EA=P. clypearia water extract)
0.5 µg/mL: MIC ([2]; Pseudomonas aeruginosa, read-out: MIC (single use), strain P6, EA=P. clypearia 10% ethanol extract) | MIC ([2]; Pseudomonas aeruginosa, read-out: MIC (single use), strain P6, EA=P. clypearia water extract) | MIC ([3]; strain A1, EA=60% ethanol extract, read-out: MIC) | MIC ([3]; strain A1, EA=95% ethanol extract, read-out: MIC) | MIC ([3]; strain A1, EA=P. clypearia 95% ethanol extract, read-out: single-use MIC) | MIC ([3]; strain A1, single use, EA=10% ethanol extract, read-out: MIC) | MIC ([3]; strain A1, single use, EA=water extract, read-out: MIC) | MIC ([3]; strain A4, EA=60% ethanol extract, read-out: MIC) | MIC ([3]; strain A4, EA=95% ethanol extract, read-out: MIC) | MIC ([3]; strain A4, EA=P. clypearia 95% ethanol extract, read-out: single-use MIC) | MIC ([3]; strain A4, single use, EA=10% ethanol extract, read-out: MIC) | MIC ([3]; strain A4, single use, EA=water extract, read-out: MIC)
8 µg/mL: MIC ([2]; Pseudomonas aeruginosa, read-out: MIC (single use), strain P3, EA=P. clypearia 10% ethanol extract) | MIC ([2]; Pseudomonas aeruginosa, read-out: MIC (single use), strain P3, EA=P. clypearia water extract) | MIC ([2]; Pseudomonas aeruginosa, read-out: MIC (single use), strain P4, EA=P. clypearia 10% ethanol extract) | MIC ([2]; Pseudomonas aeruginosa, read-out: MIC (single use), strain P4, EA=P. clypearia water extract)
2 µg/mL: MIC ([2]; Pseudomonas aeruginosa, read-out: MIC (single use), strain P11, EA=P. clypearia 10% ethanol extract) | MIC ([2]; Pseudomonas aeruginosa, read-out: MIC (single use), strain P11, EA=P. clypearia water extract) | MIC ([2]; Pseudomonas aeruginosa, read-out: MIC (single use), strain P13, EA=P. clypearia 10% ethanol extract) | MIC ([2]; Pseudomonas aeruginosa, read-out: MIC (single use), strain P13, EA=P. clypearia water extract) | MIC ([2]; Pseudomonas aeruginosa, read-out: MIC (single use), strain P15, EA=P. clypearia 10% ethanol extract) | MIC ([2]; Pseudomonas aeruginosa, read-out: MIC (single use), strain P15, EA=P. clypearia water extract)
